Experimental data from ChEMBL document CHEMBL1148854, “Synthesis and biological evaluation of unprecedented classes of spiro-beta-lactams and azido-beta-lactams as acyl-CoA:cholesterol acyltransferase inhibitors” (Bioorg Med Chem Lett, 2007).

Legend:
[1] = biological target: T1, Acyl-CoA:cholesterol acyltransferase (Oryctolagus cuniculus) (UniProt Q95214); assay: Inhibition of ACAT in Albino rabbit intestinal mucosa at 10 uM
T1 sequence (whole entry): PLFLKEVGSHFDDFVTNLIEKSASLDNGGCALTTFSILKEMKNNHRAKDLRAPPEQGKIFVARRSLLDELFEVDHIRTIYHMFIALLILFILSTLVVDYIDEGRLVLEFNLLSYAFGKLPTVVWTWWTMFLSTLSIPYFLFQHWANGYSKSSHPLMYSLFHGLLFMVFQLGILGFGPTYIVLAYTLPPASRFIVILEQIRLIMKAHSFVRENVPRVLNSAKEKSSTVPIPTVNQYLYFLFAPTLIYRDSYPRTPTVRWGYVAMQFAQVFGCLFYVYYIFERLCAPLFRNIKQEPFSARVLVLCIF

[2] = biological target: T2, Acyl-CoA:cholesterol acyltransferase (Oryctolagus cuniculus, UniProt Q95214); assay: Inhibition of ACAT in Albino rabbit intestinal mucosa
T2 sequence (Q95214 whole entry): T1 sequence (whole entry)

inhibition [1] | IC50 [2] | Structure (SMILES)
60% | – | CC[C@H](N=[N+]=[N-])[C@H](O)[C@]1(Br)C(=O)N([C@@H](C)c2ccccc2)[C@H]1c1ccccc1
– | 16.8 µM | CC[C@H](C)C(=O)O[C@H]1C[C@@H](C)C=C2C=C[C@H](C)[C@H](CC[C@@H]3C[C@@H](O)CC(=O)O3)[C@H]21 [LOVASTATIN]
65% | – | CC[C@@H](N=[N+]=[N-])[C@@H](O)[C@]1(Br)C(=O)N([C@@H](C)c2ccccc2)[C@H]1c1ccccc1
